Measured values from publication PMC10641831 (Journal of Medicinal Chemistry, 2023).
“Also recorded” adds a separate entry of the source. Where two headings read alike, the source gives them in different places. Blank lines part the entries; values can stand above or below the compound they belong to. Numbered stars: 1 amine (or outer) side, 2 acyl side, 3 side chain; on linkers, the order of the positions; unused ones are H or OH. Bridge positions count the residues as written; N and C are the ends. Square brackets hold non-standard residues; d marks the D form. Peptide text beside a SMILES is read from it. AMPB(E) = O=C(c1ccc(/N=N/c2ccc(CN[*:1])cc2)cc1)[*:2]

How the values were obtained:
pCREB = assay: Immunostaining and confocal microscopy: pCREB activation in HEK293 cells overexpressing V1bR-GFP; assay type: cell-based, human; settings: 1 nM, 60 min, normalized to negative control; VP 10 nM positive control
Description: (§1) The most promising photoprobe, 12, with a 5.3-fold photoswitch activity window at V1bR, was selected for more comprehensive in vitro experiments to validate its application scope for biological and neurological studies. As a model system, we used HEK293 cells overexpressing GFP-tagged V1bR, where receptor activation via pCREB (phosphorylated cAMP response element binding protein) and V1bR-GFP internalization can be followed through immunostaining and confocal scanning microscopy.
(§2) HEK293 cells stably expressing a C-terminal-conjugated GFP human V1bR were cultured in a full growth medium consisting of DMEM/GlutaMAX (Gibco, Thermo Fisher), containing 0.5 mg/mL G-418 (Gibco, Thermo Fisher), 1 mM sodium pyruvate (Gibco, Thermo Fisher), and 10% fetal bovine serum (Gibco, Thermo Fisher). […]
(§3) Coverslips were first incubated with 5% normal donkey serum (Jackson Immuno Research), 2% bovine serum albumin (Sigma-Aldrich, Merck), and 0.2% Triton X-100 (Sigma-Aldrich, Merck) to block nonspecific protein binding. […] Images were analyzed with ZEN pro (Zeiss) ImageJ 1.52a and collated in CorelDraw 2019. To determine pCREB activation, the fluorescence was normalized to the negative control (cells treated with a serum-free medium without G-418 instead of 12), as already minor receptor interactions can lead to pCREB activity in overexpression systems.

[1] = tested on: GFP-conjugated human V1bR; assay: Immunostaining and confocal microscopy: V1bR-GFP activation/internalization in HEK293 cells; assay type: cell-based; settings: 1 nM, 60 min
Description: as §1, §2, §3

[2] = Thermal half-life of the Z-isomer (UV/vis, 96-well plate); assay type: physicochemical; settings: 25 °C; for t1/2 (thermal half-life, Figure S50): 50 µM in HEPES buffer + 0.25% DMSO, pre-irradiated with 340 nm; for t1/2 (thermal half-life Z to E): preirradiation with 340 nm, HEPES buffer pH 7.4
Description: All photoprobes were investigated regarding their photophysical properties in aqueous buffer (pH 7.5), mimicking the conditions of the biological functional assays. […] Upon irradiation with 340 nm light for 10 s and monitoring via UV/vis spectroscopy, all compounds could be switched to the Z-isomer, reaching the photostationary state (PSS). Compounds 8–17 containing azobenzene could be switched back to the E-isomer by irradiation at 420 nm for 60 s. Compounds 18 and 19 containing arylazopyrazole could be reverted to the E isomer by using 528 nm light. […] The PSS, when switched to the Z-isomer, was consistently good, with a PSS of 81–95%. […] The thermal half-lives of 10 and 12 were also measured at 37 °C, representing the temperature during the biological assays. As expected, the thermal half-lives decreased, however, the ratio of E and Z isomers remained stable during the incubation period of the biological assays (1 h).
Starting materials and commercial reagents were purchased from Acros, Alfa Aesar, Fisher, Fluka, Fluorochem, Merck (Sigma-Aldrich), TCI and VWR and were used without further purification. Solvents were used in p.a. quality or dried according to common procedures if necessary. All reactions with oxygen- or moisture-sensitive reagents were carried out in glassware that was dried before use by heating under vacuum. Dry nitrogen or argon was used for an inert gas atmosphere. All NMR spectra were measured at room temperature (20 °C) using a Bruker Avance 400 (400 MHz for ^1H and 101 MHz for ^13C) or a Bruker Avance 600 (600 MHz for ^1H and 151 MHz for ^13C) NMR spectrometer. All chemical shifts are reported in δ-scale as parts per million [ppm] (multiplicity, coupling constant J, number of protons) relative to the solvent residual peaks. Coupling constants J are given in hertz [Hz]. Abbreviations used for signal multiplicity: ^1H NMR: s = singlet, d = doublet, dd = doublet of doublets, ddd = doublet of doublets of doublets, dt = doublet of triplets, t = triplet, td = triplet of doublets, q = quartet, and m = multiplet. All mass spectra were recorded on an Agilent Q-TOF 6540 UHD, Finnigan MAT SSQ 710 A, Jeol AccuTOF GCX or ThermoQuest Finnigan TSQ 7000 spectrometer. Absorption spectra were recorded on an UV/vis Agilent Cary 50 spectrometer. Thermal half-lives were measured on a 96-well plate in a Thermo Scientific Multiskan Spectrum. Analytical TLC was performed on silica gel-coated alumina plates (MN precoated TLC-sheets ALUGRAM Xtra SIL G/UV254). Visualization was done using UV light (254 or 366 nm) or staining with ninhydrin solution. Column chromatography was performed on a Biotage Isolera One automated flash purification system with a UV/vis detector. Analytical RP-HPLC was carried out on an Agilent 1220 Infinity LC System (column: P/No 00F-4251-B0, Phenomenex Luna 3 μm C18(2) 100 Å, LC column 150 mm × 2.0 mm). Purification by preparative HPLC was conducted on a preparative HPLC Agilent 1260 Infinity LC System [column: P/No 00G-4253-P0-AX, Phenomenex Luna 10 μm C18(2) 100 Å, LC column 250 mm × 21.2 mm]. The eluent systems were used as specified. After the purification process, solvents were removed by lyophilization. Switching experiments were done with a 340 nm LED (SSC VIOSYS CUD4AF1B, 500 mA, 55 mW), 420 nm LED (ILH-XC01-S410-SC211-WIR200, 800 mA, 440 mW), and 528 nm LED (OSRAM Oslon SSL 80 green, 500 mA, 34 mW). Purity of all photoprobes was >95% as determined by analytical RP-HPLC at 220 nm in DMSO.
1.3.4. Thermal Half-lives
Thermal half-lives were measured in a 96-well plate in a Thermo Scientific Multiskan® Spectrum at 25 °C (and at 37 °C for compounds 10 and 12). The solutions (50 µM in HEPES buffer + 0.25% DMSO) were pre-irradiated with 340 nm. The absorption at 335 nm was measured every 3 h. The data was analyzed using Origin 2021.
0,7 1/2 ExpDec1 Fit of Sheet1 B
Modell ExpDec1 0,35 Modell ExpDec1
0,6 Gleichung y = A 1 *e xp (-x/t1 ) + y0 Gleichung y = A 1 *e xp (-x/t1 ) + y0 […]

[3] = Photostationary state by analytical C18-RP-HPLC; assay type: physicochemical; settings: for PSS (E → Z): irradiation with 340 nm, HEPES buffer; for PSS (Z → E): irradiation with 420 nm (8–17) or 528 nm (18, 19)
Description: All photoprobes were investigated regarding their photophysical properties in aqueous buffer (pH 7.5), mimicking the conditions of the biological functional assays.
1.3.2. Photostationary States
Photostationary states (PSS) were measured on analytical C18-RP-HPLC (flow: 0.3 mL/min, solvent A: H2O (0.05% TFA), solvent B: MeCN). To determine the PSS of the photoswitches, the samples (in 0.1 mM in HEPES buffer + 1% DMSO, pH 7.5) were irradiated first with 340 nm to get the Z-isomer. Afterwards, the sample was irradiated with 420 nm (8-17) or 528 nm (18 and 19), respectively, to get back to the E-isomer. The samples were measured at the isosbestic points.

hV1aR [4] = biological target: T1, hV1aR (Homo sapiens, UniProt P37288); assay: IP-One accumulation assay, antagonist function (VP displacement) at hV1aR; assay type: cell-based; settings: coaddition of VP 1 nM; for antagonistic activity at V1aR: 10 and 100 μM; for VP displacement: at 10 μM
T1 construct: expressed in transfected cells
T1 sequence (P37288 whole entry): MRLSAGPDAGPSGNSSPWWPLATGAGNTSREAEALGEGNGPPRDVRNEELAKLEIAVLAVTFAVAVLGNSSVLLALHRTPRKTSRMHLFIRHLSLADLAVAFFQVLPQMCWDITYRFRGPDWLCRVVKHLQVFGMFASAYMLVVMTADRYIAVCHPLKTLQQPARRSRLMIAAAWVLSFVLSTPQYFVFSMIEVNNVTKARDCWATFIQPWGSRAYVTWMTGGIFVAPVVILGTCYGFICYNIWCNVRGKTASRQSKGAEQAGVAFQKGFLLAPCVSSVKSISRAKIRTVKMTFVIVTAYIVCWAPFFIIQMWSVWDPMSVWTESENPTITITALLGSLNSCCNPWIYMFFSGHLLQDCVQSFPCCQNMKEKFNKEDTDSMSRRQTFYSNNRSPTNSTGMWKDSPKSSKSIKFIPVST
Description: This was done via coaddition and prior mixing of VP (EC60 of 1 nM) and the potential antagonists 13–19. […] IP1 accumulation was measured at concentrations of 10 and 100 μM for peptides 13–19.
Figure 5 Functional screen for antagonistic activities at V1aR. […] Data represent mean ± SEM from at least three independent experiments, each performed in triplicate.
To assess the antagonistic properties of compounds 13–19, a 4-fold concentrated dilution series in stimulation buffer was prepared for each isomer. Separately, a 4-fold concentrated VP solution was prepared (4 nM, final concentration 1 nM). A 1:1 mixture of VP solution and the diluted ligand was made to end up with a 2-fold concentration of both compounds. The following steps were conducted as described above for the agonist mode. The FRET ratios (665/615 nm) were calculated and obtained values were normalized to the basal activity value (0%) and maximal effect of VP (100%). Atosiban was used as a positive control.

hV1aR [5] = biological target: T1, hV1aR; assay: IP-One accumulation assay, agonist function, HEK293 cells expressing hV1aR; assay type: cell-based; settings: for agonist activity at V1aR: concentrations up to 10 μM; for EC50: supplementary CSV, µM
hV1bR = biological target: T2, hV1bR (Homo sapiens, UniProt P47901); assay: IP-One accumulation assay, agonist function, HEK293 cells expressing hV1bR; assay type: cell-based; settings: for reduced potency at V1bR compared to VP: EC50 vs VP; for EC50: supplementary CSV
T2 construct: expressed in transfected cells
T2 sequence (P47901 1-424): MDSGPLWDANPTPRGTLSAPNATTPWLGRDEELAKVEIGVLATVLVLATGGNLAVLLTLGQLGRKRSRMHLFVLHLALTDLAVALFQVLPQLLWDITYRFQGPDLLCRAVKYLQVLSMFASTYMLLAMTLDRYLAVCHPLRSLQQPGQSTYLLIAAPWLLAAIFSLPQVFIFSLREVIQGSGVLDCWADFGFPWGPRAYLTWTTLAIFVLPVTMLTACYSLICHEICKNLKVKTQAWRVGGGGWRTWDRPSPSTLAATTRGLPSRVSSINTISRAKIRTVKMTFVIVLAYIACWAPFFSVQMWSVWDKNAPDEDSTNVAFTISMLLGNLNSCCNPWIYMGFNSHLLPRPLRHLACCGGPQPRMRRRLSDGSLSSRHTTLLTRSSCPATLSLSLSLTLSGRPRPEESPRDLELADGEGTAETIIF

[6] = biological target: human oxytocin receptor (human) (UniProt P30559)
Chain of human oxytocin receptor (human) (P30559 whole entry): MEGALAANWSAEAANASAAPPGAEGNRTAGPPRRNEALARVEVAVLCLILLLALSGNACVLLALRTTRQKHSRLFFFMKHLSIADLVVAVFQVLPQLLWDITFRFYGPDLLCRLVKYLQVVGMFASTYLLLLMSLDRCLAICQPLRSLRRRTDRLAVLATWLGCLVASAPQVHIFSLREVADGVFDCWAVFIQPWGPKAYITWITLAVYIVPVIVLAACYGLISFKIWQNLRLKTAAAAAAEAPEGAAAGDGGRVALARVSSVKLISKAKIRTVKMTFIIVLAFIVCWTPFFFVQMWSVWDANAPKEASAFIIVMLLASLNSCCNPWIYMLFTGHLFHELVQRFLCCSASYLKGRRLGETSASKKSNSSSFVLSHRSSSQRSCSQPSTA

[7] = read-out: activity E-isomer V1aR
[8] = read-out: activity Z-isomer V1aR
[9] = read-out: activity E-isomer V1bR

Chain of Oxytocin (P01178 whole entry, looked up): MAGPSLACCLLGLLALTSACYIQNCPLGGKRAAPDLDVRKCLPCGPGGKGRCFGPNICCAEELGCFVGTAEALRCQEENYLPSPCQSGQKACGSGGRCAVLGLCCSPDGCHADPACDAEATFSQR

Compound: N=C(N)NCCC[C@H](NC(=O)[C@@H]1CCCN1C(=O)[C@@H]1CSSC[C@H](N)C(=O)N[C@@H](Cc2ccc(O)cc2)C(=O)N[C@@H](Cc2ccc(/N=N/c3ccccc3)cc2)C(=O)N[C@@H](CCC(N)=O)C(=O)N[C@@H](CC(N)=O)C(=O)N1)C(=O)NCC(N)=O [E-12]
pCREB activation (CREB phosphorylation) (pCREB): inactive
V1bR-GFP receptor activation / internalization [1]: did not cause any visible receptor activation or internalization; also recorded: did not induce V1bR-GFP internalization; also recorded: inactive

Compound: [AzbC(o,o)^1,Dap^6]-VP [compound 15]
t1/2 (thermal half-life, Figure S50) [2]: 64.8 h
t1/2 (thermal half-life Z to E) [2]: 64.8 h
PSS (E → Z) [3]: 88%
PSS (Z → E) [3]: 69%
antagonistic activity at V1aR (hV1aR [4]): some antagonistic properties

Compound: N=C(N)NCCC[C@H](NC(=O)c1ccc(/N=N/c2ccc(CNC(=O)[C@@H]3CSSC[C@H](N)C(=O)N[C@@H](Cc4ccc(O)cc4)C(=O)N[C@@H](Cc4ccccc4)C(=O)N[C@@H](CCC(N)=O)C(=O)N[C@@H](CC(N)=O)C(=O)N3)cc2)cc1)C(=O)NCC(N)=O [compound 14, [AzbL^7]-VP] (H-CYFQNC[AMPB(E)]RG-NH2; disulfide 1-6)
t1/2 (thermal half-life, Figure S50) [2]: 33.6 h
t1/2 (thermal half-life Z to E) [2]: 33.6 h
agonist activity at V1aR (hV1aR [5]): complete loss of potency
EC50 (hV1aR [5]; [7]): > 10 µM
EC50 (hV1aR [5]; [8]): > 10 µM
PSS (E → Z) [3]: 81%
PSS (Z → E) [3]: 86%
antagonistic activity at V1aR (hV1aR [4]): some level of antagonistic activity
VP displacement (hV1aR [4]): 85%
reduced potency at V1bR compared to VP (hV1bR): 700–2000 fold
EC50 (hV1bR; [9]): 4.97 ± 0.754 µM

Emax (efficacy, reference), IP-One accumulation, HEK293 cells expressing hOTR [6]: 100%
Compound: Oxytocin (from UniProt P01178 20-28) (peptide)

Compound: N=C(N)NCCC[C@H](NC(=O)[C@@H]1CCCN1C(=O)[C@@H]1CSSC[C@H](N)C(=O)N[C@@H](Cc2ccc(O)cc2)C(=O)N[C@@H](Cc2ccc(/N=N\c3ccccc3)cc2)C(=O)N[C@@H](CCC(N)=O)C(=O)N[C@@H](CC(N)=O)C(=O)N1)C(=O)NCC(N)=O [Z-12]
pCREB activation (CREB phosphorylation) (pCREB): significantly (P < 0.001) activated pCREB at levels comparable to VP; also recorded: significantly induced CREB phosphorylation
V1bR-GFP receptor activation / internalization [1]: activated V1bR-GFP; also recorded: induced V1bR-GFP internalization

Compound: NC(=O)CC[C@@H]1NC(=O)[C@H](Cc2ccccc2)NC(=O)[C@H](Cc2ccc(O)cc2)NC(=O)[C@@H](N)CSSC[C@@H](C(=O)NCc2ccc(/N=N/c3ccc(C(=O)NCC(N)=O)cc3)cc2)NC(=O)[C@H](CC(N)=O)NC1=O [compound 13, [AzbL^7/8]-VP] (H-CYFQNC[AMPB(E)]G-NH2; disulfide 1-6)
t1/2 (thermal half-life, Figure S50) [2]: 12.4 h
t1/2 (thermal half-life Z to E) [2]: 12 h
agonist activity at V1aR (hV1aR [5]): complete loss of potency
EC50 (hV1aR [5]; [7]): > 10 µM
EC50 (hV1aR [5]; [8]): > 10 µM
PSS (E → Z) [3]: 85%
PSS (Z → E) [3]: 79%
antagonistic activity at V1aR (hV1aR [4]): some level of antagonistic activity
VP displacement (hV1aR [4]): 76%
reduced potency at V1bR compared to VP (hV1bR): 700–2000 fold
EC50 (hV1bR; [9]): 11.3 ± 1.83 µM
EC50 (hV1bR; read-out: activity Z-isomer V1bR): 7.23 ± 1.58 µM
